Source: US20080194585A1, “Fungicidal Pyrazine Derivatives” (priority 2005, published 2008)
Marks after values point to notes of the source that are not given here.

Experiments:
Conditions in all cases: 100 = 100% disease control, 0 = no control
Plasmopara viticola = assay: Test D: grape downy mildew, spray after inoculation of grape seedlings; type: in vivo
From the text: Upon removal, disease ratings were made. […] A dash (-) indicates no test results.

Phytophthora infestans = assay: whole plant or invertebrate; type: in vivo
Septoria tritici = assay: Test J: wheat leaf blotch, preventive spray on wheat seedlings; type: in vivo
From the text: A dash (-) indicates no test results.

fusarium graminearium = assay: Test I: wheat head scab, preventive spray on wheat seedlings
Experimental: (the causal agent of wheat head scab) and incubated in a saturated atmosphere at 20° C. for 72 h, and then moved to a growth chamber at 22° C. for 5 days, after which disease ratings were made.

[1] = system: Puccinia recondita f. sp. tritici; assay: Test K: wheat leaf rust, preventive spray on wheat seedlings
Botrytis cinerea = assay: Test E: tomato botrytis, preventive spray on tomato seedlings
Septoria nodorum = assay: Test H: wheat glum blotch, preventive spray on wheat seedlings
Experimental: (the causal agent of wheat glum blotch) and incubated in a saturated atmosphere at 20° C. for 48 h, and then moved to a growth chamber at 22° C. for 5 days, after which disease ratings were made.

[2] = system: Erysiphe graminis f. sp. tritici; assay: Test L: wheat powdery mildew, preventive spray on wheat seedlings
Pythium aphanidermatum = assay: Test A: bluegrass pythium blight, preventive spray on bluegrass seedlings
Rhizoctonia oryzae = assay: Test G: turf brown patch, preventive spray on creeping bent grass seedlings
Experimental: (the causal agent of turf brown patch) and incubated in a saturated atmosphere at 27° C. for 24 h, and then moved to a growth chamber at 27° C. for 5 days, after which disease ratings were made.

[3] = system: Colletotrichum orbiculare; assay: Test B: cucumber Colletotrichum anthracnose, preventive spray on cucumber seedlings

SMILES | Test D disease control rating (Plasmopara viticola; 40 ppm (marked *)) | Test F disease control rating (Phytophthora infestans; 40 ppm (marked *)) | Test J disease control rating (Septoria tritici; 40 ppm (marked *)) | Test I disease control rating (fusarium graminearium; 40 ppm (marked *)) | Test K disease control rating ([1]; 40 ppm (marked *)) | Test E disease control rating (Botrytis cinerea; 40 ppm (marked *)) | Test H disease control rating (Septoria nodorum; 40 ppm (marked *)) | Test L disease control rating ([2]; 40 ppm (marked *)) | Test A disease control rating (Pythium aphanidermatum; 40 ppm (marked *)) | Test G disease control rating (Rhizoctonia oryzae; 40 ppm (marked *)) | Test B disease control rating ([3]; 40 ppm (marked *)) | Test D disease control rating (Plasmopara viticola; 200 ppm) [%] | Test F disease control rating (Phytophthora infestans; 200 ppm) [%] | Test I disease control rating (fusarium graminearium; 200 ppm) [%] | Test A disease control rating (Pythium aphanidermatum; 200 ppm) [%] | further results
Cc1ccn(-c2nc(Cl)c(-c3c(F)cc(F)cc3F)n(-c3ccccc3)c2=O)n1 [compound 321] | 17* % | 0* % | 100* % | 82* % | 99* % | 99* % | 100* % | 0* % | 0* % | 70* % | 94* % |  |  |  |  | 
O=c1c(-n2cccn2)nc(Cl)c(-c2ccc(F)cc2Cl)n1-c1ccccc1 [compound 322] | 0* % | 0* % | 100* % | 0* % | 92* % | 99* % | 98* % | 0* % | 0* % | 16* % | 63* % |  |  |  |  | 
Cc1ccn(-c2nc(Cl)c(-c3ccc(F)cc3Cl)n(-c3ccccc3)c2=O)n1 [compound 323] | 0* % | 0* % | 100* % | 0* % | 96* % | 99* % | 97* % | 0* % | 0* % | 16* % | 78* % |  |  |  |  | 
CC(C)Cn1c(-c2c(F)cccc2F)c(Cl)nc(-n2cccc2C#N)c1=O [compound 325] | 0* % | 0* % | 7* % | 0* % |  | 0* % |  | 0* % | 0* % | 0* % | 0* % |  |  |  |  | Test K disease control rating ([1]; 200 ppm): 0%; Test H disease control rating (Septoria nodorum; 200 ppm): 0%
Cc1cccc(-n2c(-c3c(F)cccc3F)c(Cl)nc(-n3cccn3)c2=O)c1 [compound 326] | 0* % | 0* % | 97* % | 0* % | 97* % | 99* % | 100* % | 94* % | 0* % | 16* % | 0* % |  |  |  |  | 
Cc1cccc(-n2c(-c3c(F)cccc3F)c(Cl)nc(-n3ccc(C)n3)c2=O)c1 [compound 327] | 0* % | 0* % | 97* % | 0* % | 95* % | 99* % | 98* % | 78* % | 93* % | 0* % | 37* % |  |  |  |  | 
Cc1ccccc1-n1c(-c2c(F)cccc2F)c(Cl)nc(-n2cccn2)c1=O [compound 328] | 0* % | 0* % | 100* % | 31* % | 98* % | 99* % | 100* % | 88* % | 0* % | 87* % | 0* % |  |  |  |  | 
Cc1ccn(-c2nc(Cl)c(-c3c(F)cccc3F)n(-c3ccccc3C)c2=O)n1 [compound 329] | 0* % | 0* % | 100* % | 0* % | 96* % | 99* % | 100* % | 76* % | 83* % | 26* % | 31* % |  |  |  |  | 
O=c1c(-n2cccn2)nc(Cl)c(-c2c(F)cc(F)cc2F)n1Cc1cccc(Br)c1 [compound 344] |  |  | 100* % |  | 99* % | 92* % | 99* % | 0* % |  | 16* % | 0* % | 0 | 0 | 93 | 0 | 
O=c1c(-n2cccn2)nc(Cl)c(-c2c(F)cc(F)cc2F)n1Cc1ccccc1Br [compound 345] |  |  | 100* % |  | 100* % | 98* % | 99* % | 88* % |  | 31* % | 88* % | 0 | 0 | 91 | 0 | 
O=c1c(-n2cccn2)nc(Cl)c(-c2c(F)cc(F)cc2F)n1Cc1ccc(C(F)(F)F)cc1 [compound 346] |  |  | 13* % |  | 74* % | 0* % | 0* % | 0* % |  | 0* % | 0* % | 0 | 0 | 0 | 0 | 
O=c1c(-n2cccn2)nc(Cl)c(-c2c(F)cc(F)cc2F)n1Cc1cccc(C(F)(F)F)c1 [compound 347] |  |  | 83* % |  | 93* % | 0* % | 0* % | 25* % |  | 0* % | 0* % | 0 | 0 | 0 | 0 | 
O=c1c(-n2cccn2)nc(Cl)c(-c2c(F)cc(F)cc2F)n1Cc1ccccc1C(F)(F)F [compound 348] |  |  | 99* % |  | 97* % | 90* % | 64* % | 44* % |  | 16* % | 0* % | 0 | 0 | 0 | 0 | 
CCC(C)Cn1c(-c2c(F)cccc2F)c(Cl)nc(C(=O)NCCO)c1=O (stereo not shown) [compound 349] |  |  | 25* % |  | 96* % | 0* % | 0* % | 0* % |  | 0* % | 0* % | 0 | 0 | 0 | 0 | 
CC(C)Cn1c(-c2c(F)cccc2F)c(Cl)nc(-c2cnccn2)c1=O [compound 350] |  |  |  |  |  |  |  |  |  |  |  | 0 | 0 | 80 | 80 | Test J disease control rating (Septoria tritici; 200 ppm): 85%; Test K disease control rating ([1]; 200 ppm): 99%; Test E disease control rating (Botrytis cinerea; 200 ppm): 98%; Test H disease control rating (Septoria nodorum; 200 ppm): 98%; Test L disease control rating ([2]; 200 ppm): 86%; Test G disease control rating (Rhizoctonia oryzae; 200 ppm): 99%; Test B disease control rating ([3]; 200 ppm): 0%
O=c1c(-n2cccn2)nc(Cl)c(-c2c(F)cc(F)cc2F)n1-c1cccc(Br)c1 [compound 351] |  |  | 100* % |  | 100* % | 99* % | 99* % | 100* % |  | 0* % | 99* % | 0 | 0 | 78 | 0 | 
O=c1c(-n2cccn2)nc(Cl)c(-c2c(F)cc(F)cc2F)n1-c1ccc(Br)cc1 [compound 352] |  |  | 100* % |  | 99* % | 99* % | 97* % | 81* % |  | 31* % | 99* % | 0 | 0 | 63 | 0 | 
